# ChEMBL document CHEMBL1909046, “DrugMatrix in vitro pharmacology data”
# *1 amine or outer side, *2 acyl side, *3 side chain or, on linkers, in order; H or OH if unused. Where a SMILES comes first, the peptide text is derived from it. Bridges are numbered along the chain shown (N, C = ends). Roman numbers before positions name the chains, in order. [ ]: non-standard residue; d: D form. Actinocin(1to9) = Cc1c2oc3c(C)ccc(C(=O)[*:2])c3nc-2c(C(=O)[*:1])c(N)c1=O; NMeV = CN[C@H](C(=O)O)C(C)C; Sar = CNCC(=O)O
# Columns and labels:
# [1] = target: T1, Cysteinyl leukotriene receptor 1 (Homo sapiens, UniProt Q9Y271); assay type: cell membranes, CHO-K1, Membrane; settings: cho-k1; also: in other assays of this panel Not Active means under 50% inhibition at 10 µM
# T1 sequence (Q9Y271 whole entry): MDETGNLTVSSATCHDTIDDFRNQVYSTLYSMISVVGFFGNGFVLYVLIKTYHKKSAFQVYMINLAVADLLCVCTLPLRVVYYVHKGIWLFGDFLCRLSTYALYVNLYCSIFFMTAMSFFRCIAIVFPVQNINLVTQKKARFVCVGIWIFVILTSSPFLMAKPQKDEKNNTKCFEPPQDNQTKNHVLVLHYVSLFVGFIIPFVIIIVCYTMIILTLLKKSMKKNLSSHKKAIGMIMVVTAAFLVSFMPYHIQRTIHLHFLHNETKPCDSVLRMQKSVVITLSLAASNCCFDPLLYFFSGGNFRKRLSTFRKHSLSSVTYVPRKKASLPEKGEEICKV
# Neutrophil elastase = target: T2, Neutrophil elastase (Homo sapiens, UniProt P08246); assay type: tissue-based;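 also: inhibition of neutrophil elastase enzyme activity, measured with a p-nitroanilide-linked peptide substrate; in other assays of this panel Not Active means under 50% inhibition at 10 µM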
# T2 sequence (P08246 whole entry): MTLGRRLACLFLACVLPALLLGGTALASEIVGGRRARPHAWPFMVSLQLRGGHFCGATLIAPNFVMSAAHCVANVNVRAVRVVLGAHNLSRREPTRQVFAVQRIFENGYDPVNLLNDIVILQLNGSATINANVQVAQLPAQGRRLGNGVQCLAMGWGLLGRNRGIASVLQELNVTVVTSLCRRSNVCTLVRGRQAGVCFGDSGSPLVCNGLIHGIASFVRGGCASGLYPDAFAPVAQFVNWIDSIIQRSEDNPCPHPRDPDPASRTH
# [2] = target: Voltage-gated inwardly rectifying potassium channel KCNH2 (Homo sapiens, UniProt Q12809); settings: hek293; also: in other assays of this panel Not Active means under 50% inhibition at 10 µM
# [3] = target: 5-hydroxytryptamine receptor 1B (Rattus norvegicus, UniProt P28564); assay type: cell membranes, Wistar, Cerebral cortex, Membrane; also: in other assays of this panel Not Active means under 50% inhibition at 10 µM
# [4] = target: Prostaglandin G/H synthase 1 (Homo sapiens, UniProt P23219); assay: biochemical; assay type: tissue-based, Platelet
# [5] = target: Mitogen-activated protein kinase 3 (Homo sapiens, UniProt P27361); assay: DRUGMATRIX: Protein Serine/Threonine Kinase, ERK1 enzyme inhibition (substrate: Myelin Basic Protein); design: species or system Escherichia coli; settings: Not Active = under 50% inhibition at 10 µM
# Cytochrome P450 2C19 = Cytochrome P450 2C19 (Homo sapiens, UniProt P33261); settings: bti-tn-5b1-4; also: in other assays of this panel Not Active means under 50% inhibition at 10 µM
# Chain of Cytochrome P450 2C19 (P33261 whole entry): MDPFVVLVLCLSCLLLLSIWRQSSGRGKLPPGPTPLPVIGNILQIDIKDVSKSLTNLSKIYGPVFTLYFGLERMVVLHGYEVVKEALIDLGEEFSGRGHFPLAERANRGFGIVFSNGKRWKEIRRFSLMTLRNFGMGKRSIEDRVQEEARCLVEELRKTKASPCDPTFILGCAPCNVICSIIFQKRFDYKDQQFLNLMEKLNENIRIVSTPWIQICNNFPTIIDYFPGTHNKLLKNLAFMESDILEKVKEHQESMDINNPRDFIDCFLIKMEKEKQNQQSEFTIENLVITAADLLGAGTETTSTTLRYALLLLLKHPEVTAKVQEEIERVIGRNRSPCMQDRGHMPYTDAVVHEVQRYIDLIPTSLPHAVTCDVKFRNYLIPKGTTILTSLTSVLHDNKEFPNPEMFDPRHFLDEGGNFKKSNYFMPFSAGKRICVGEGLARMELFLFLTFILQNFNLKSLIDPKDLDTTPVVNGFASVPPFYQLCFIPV
# Chain of Mitogen-activated protein kinase 3 (P27361 whole entry): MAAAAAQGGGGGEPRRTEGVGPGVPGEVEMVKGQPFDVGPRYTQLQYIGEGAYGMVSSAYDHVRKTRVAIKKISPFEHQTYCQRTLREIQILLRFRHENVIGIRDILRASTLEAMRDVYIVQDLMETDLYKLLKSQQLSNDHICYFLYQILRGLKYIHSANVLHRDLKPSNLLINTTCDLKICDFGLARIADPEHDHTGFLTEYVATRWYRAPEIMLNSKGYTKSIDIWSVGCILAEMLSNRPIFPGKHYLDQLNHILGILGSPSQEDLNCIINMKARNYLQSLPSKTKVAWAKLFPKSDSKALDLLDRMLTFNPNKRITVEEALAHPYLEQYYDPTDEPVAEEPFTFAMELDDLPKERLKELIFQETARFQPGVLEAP
# Chain of Prostaglandin G/H synthase 1 (P23219 whole entry): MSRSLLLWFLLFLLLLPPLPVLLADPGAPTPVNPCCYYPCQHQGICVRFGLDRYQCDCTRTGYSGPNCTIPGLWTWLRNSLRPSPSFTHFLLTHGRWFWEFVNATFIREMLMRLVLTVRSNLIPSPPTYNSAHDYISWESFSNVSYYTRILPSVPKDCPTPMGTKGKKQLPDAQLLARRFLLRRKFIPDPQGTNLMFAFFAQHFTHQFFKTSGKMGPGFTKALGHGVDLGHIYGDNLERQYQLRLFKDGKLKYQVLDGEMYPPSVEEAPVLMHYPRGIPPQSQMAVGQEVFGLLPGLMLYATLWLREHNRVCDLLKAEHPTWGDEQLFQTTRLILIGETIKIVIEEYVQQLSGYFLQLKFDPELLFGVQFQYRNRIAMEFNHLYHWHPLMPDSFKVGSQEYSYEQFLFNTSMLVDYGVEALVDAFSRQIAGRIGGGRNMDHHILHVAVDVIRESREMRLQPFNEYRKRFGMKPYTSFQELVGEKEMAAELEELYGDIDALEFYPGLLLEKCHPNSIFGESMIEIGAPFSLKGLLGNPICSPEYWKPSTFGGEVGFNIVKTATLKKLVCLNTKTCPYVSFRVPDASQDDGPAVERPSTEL
# Chain of 5-hydroxytryptamine receptor 1B (P28564 whole entry): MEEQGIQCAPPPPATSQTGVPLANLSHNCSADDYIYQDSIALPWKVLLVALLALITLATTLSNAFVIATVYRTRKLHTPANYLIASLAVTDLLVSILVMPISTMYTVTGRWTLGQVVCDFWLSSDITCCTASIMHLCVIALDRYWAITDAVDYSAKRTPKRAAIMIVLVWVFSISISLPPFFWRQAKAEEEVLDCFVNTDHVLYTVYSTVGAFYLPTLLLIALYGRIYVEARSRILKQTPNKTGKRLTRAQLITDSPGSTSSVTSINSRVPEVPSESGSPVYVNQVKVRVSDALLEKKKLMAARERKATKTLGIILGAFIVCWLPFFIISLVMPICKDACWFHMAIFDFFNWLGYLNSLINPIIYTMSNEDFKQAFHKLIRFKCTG
# Chain of Voltage-gated inwardly rectifying potassium channel KCNH2 (Q12809 whole entry): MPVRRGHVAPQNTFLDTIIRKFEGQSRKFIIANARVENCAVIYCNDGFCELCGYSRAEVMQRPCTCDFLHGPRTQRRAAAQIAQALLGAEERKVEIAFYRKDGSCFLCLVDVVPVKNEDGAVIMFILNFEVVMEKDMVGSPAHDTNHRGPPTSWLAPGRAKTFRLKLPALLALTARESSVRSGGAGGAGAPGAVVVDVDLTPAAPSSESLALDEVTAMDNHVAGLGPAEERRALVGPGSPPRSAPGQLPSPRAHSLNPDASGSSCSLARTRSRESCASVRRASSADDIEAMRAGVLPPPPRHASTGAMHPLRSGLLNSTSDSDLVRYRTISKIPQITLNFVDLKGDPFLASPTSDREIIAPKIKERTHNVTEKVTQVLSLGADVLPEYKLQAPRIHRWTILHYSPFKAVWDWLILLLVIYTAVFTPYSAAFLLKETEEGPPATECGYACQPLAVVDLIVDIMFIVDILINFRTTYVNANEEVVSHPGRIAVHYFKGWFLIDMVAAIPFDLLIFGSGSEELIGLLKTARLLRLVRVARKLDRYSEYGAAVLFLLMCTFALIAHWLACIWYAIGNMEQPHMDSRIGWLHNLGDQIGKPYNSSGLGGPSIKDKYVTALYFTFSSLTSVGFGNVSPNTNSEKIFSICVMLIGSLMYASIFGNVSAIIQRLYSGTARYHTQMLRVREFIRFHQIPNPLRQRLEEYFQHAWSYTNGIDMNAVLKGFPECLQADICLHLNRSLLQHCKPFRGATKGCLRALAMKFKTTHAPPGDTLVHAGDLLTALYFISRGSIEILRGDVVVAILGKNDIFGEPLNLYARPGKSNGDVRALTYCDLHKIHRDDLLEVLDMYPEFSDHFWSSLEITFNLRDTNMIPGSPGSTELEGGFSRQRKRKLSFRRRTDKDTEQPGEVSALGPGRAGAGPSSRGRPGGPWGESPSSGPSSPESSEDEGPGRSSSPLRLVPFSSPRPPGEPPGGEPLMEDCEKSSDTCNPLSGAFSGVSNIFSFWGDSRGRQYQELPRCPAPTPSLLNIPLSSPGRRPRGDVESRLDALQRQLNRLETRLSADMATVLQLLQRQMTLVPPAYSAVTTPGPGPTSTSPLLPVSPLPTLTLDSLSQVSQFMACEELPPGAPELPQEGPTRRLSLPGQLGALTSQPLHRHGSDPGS
SMILES,IC50 [1],IC50 (Neutrophil elastase),IC50 [2],Ki [2],IC50 [3],IC50 ([4]; platelet),IC50 [5],IC50 (Cytochrome P450 2C19),Ki (Cytochrome P450 2C19),IC50 ([3]; read-out: IC50),Ki ([3]; read-out: Ki),IC50 ([4]; read-out: IC50)
CC1=C2C(=CO[C@H](C)[C@H]2C)C(O)=C(C(=O)O)C1=O [CITRININ],Not Active,Not Active,Not Active,Not Active,Not Active,Not Active,Not Active,Not Active,Not Active,,,
CC(C)(C)NCC(O)c1cc(Cl)c(N)c(Cl)c1 (configuration not stated) [CLENBUTEROL],Not Active,Not Active,Not Active,Not Active,Not Active,Not Active,Not Active,Not Active,Not Active,,,
Clc1cccc(Cl)c1NC1=NCCN1 [CLONIDINE],Not Active,Not Active,Not Active,Not Active,Not Active,Not Active,Not Active,Not Active,Not Active,,,
Cc1cc(C(C#N)c2ccc(Cl)cc2)c(Cl)cc1NC(=O)c1cc(I)cc(I)c1O (configuration not stated) [CLOSANTEL],Not Active,Not Active,Not Active,Not Active,Not Active,Not Active,Not Active,Not Active,Not Active,,,
Cc1onc(-c2ccccc2Cl)c1C(=O)N[C@@H]1C(=O)N2[C@@H]1SC(C)(C)[C@@H]2C(=O)O [CLOXACILLIN],Not Active,Not Active,Not Active,Not Active,Not Active,Not Active,Not Active,Not Active,Not Active,,,
CC1CC(OC(=O)C(O)c2ccccc2)CC(C)(C)C1 (configuration not stated) [CYCLANDELATE],Not Active,Not Active,Not Active,Not Active,Not Active,Not Active,Not Active,Not Active,Not Active,,,
"Cc1c2oc3c(C)ccc(C(=O)N[C@@H]4C(=O)N[C@H](C(C)C)C(=O)N5CCC[C@H]5C(=O)N(C)CC(=O)N(C)[C@@H](C(C)C)C(=O)O[C@@H]4C)c3nc-2c(C(=O)N[C@@H]2C(=O)N[C@H](C(C)C)C(=O)N3CCC[C@H]3C(=O)N(C)CC(=O)N(C)[C@@H](C(C)C)C(=O)O[C@@H]2C)c(N)c1=O [DACTINOMYCIN] (I: T[dV]P[Sar][NMeV] / II: T[dV]P[Sar][NMeV]; ester I:1-I:C, II:1-II:C; linker I:N-II:N via Actinocin(1to9))",Not Active,Not Active,Not Active,Not Active,Not Active,Not Active,Not Active,Not Active,Not Active,,,
Cc1c(O)c(=O)ccn1C [DEFERIPRONE],Not Active,Not Active,Not Active,Not Active,Not Active,Not Active,Not Active,Not Active,Not Active,,,
O=c1oc2ccccc2c(O)c1Cc1c(O)c2ccccc2oc1=O [DICUMAROL],Not Active,Not Active,Not Active,Not Active,Not Active,Not Active,Not Active,Not Active,Not Active,,,
C[C@H]1O[C@@H](O[C@H]2[C@@H](O)C[C@H](O[C@H]3[C@@H](O)C[C@H](O[C@H]4CC[C@@]5(C)[C@H](CC[C@@H]6[C@@H]5C[C@@H](O)[C@]5(C)[C@@H](C7=CC(=O)OC7)CC[C@]65O)C4)O[C@@H]3C)O[C@@H]2C)C[C@H](O)[C@@H]1O [DIGOXIN],Not Active,Not Active,Not Active,Not Active,Not Active,Not Active,Not Active,Not Active,Not Active,,,
CC(=O)O[C@@]12CO[C@@H]1C[C@H](O)[C@@]1(C)C(=O)[C@H](O)C3=C(C)[C@@H](OC(=O)[C@H](O)[C@@H](NC(=O)OC(C)(C)C)c4ccccc4)C[C@@](O)([C@@H](OC(=O)c4ccccc4)[C@H]21)C3(C)C.O.O.O [DOCETAXEL],Not Active,Not Active,Not Active,Not Active,Not Active,Not Active,Not Active,Not Active,Not Active,,,
C[C@H]1c2cccc(O)c2C(=O)C2=C(O)[C@]3(O)C(=O)C(C(N)=O)=C(O)[C@@H](N(C)C)[C@@H]3[C@@H](O)[C@@H]21.O [DOXYCYCLINE],Not Active,Not Active,Not Active,Not Active,Not Active,Not Active,Not Active,Not Active,Not Active,,,
CC(C)[C@H]1C(=O)N2CCC[C@H]2[C@]2(O)O[C@](NC(=O)[C@@H]3C=C4c5cccc6[nH]cc(c56)C[C@H]4N(C)C3)(C(C)C)C(=O)N12 [ERGOCORNINE],Not Active,Not Active,Not Active,Not Active,,Not Active,Not Active,Not Active,Not Active,30 nM,19 nM,
OC(Cn1cncn1)(Cn1cncn1)c1ccc(F)cc1F [FLUCONAZOLE],Not Active,Not Active,Not Active,Not Active,Not Active,Not Active,Not Active,Not Active,Not Active,,,
CC(C)C(=O)Nc1ccc([N+](=O)[O-])c(C(F)(F)F)c1 [FLUTAMIDE],Not Active,Not Active,Not Active,Not Active,Not Active,Not Active,Not Active,Not Active,Not Active,,,
CC1(C)O[C@@H]2C[C@H]3[C@@H]4CCC5=CC(=O)CC[C@]5(C)[C@@]4(F)[C@@H](O)C[C@]3(C)[C@]2(C(=O)CCl)O1 [HALCINONIDE],Not Active,Not Active,Not Active,Not Active,Not Active,Not Active,Not Active,Not Active,Not Active,,,
O=c1[nH]c(=O)n([C@H]2C[C@H](O)[C@@H](CO)O2)cc1I [IDOXURIDINE],Not Active,Not Active,Not Active,Not Active,Not Active,Not Active,Not Active,Not Active,Not Active,,,
CC1Cc2ccccc2N1NC(=O)c1ccc(Cl)c(S(N)(=O)=O)c1 (configuration not stated) [INDAPAMIDE],Not Active,Not Active,Not Active,Not Active,Not Active,Not Active,Not Active,Not Active,Not Active,,,
Nc1nc(N)nc(-c2cc(Cl)ccc2Cl)n1.O=C(O)/C=C\C(=O)O [IRSOGLADINE MALEATE],Not Active,Not Active,Not Active,Not Active,Not Active,Not Active,Not Active,Not Active,Not Active,,,
CCC(C)n1ncn(-c2ccc(N3CCN(c4ccc(OCC5COC(Cn6cncn6)(c6ccc(Cl)cc6Cl)O5)cc4)CC3)cc2)c1=O (configuration not stated) [ITRACONAZOLE],Not Active,Not Active,Not Active,Not Active,Not Active,Not Active,Not Active,Not Active,Not Active,,,
CCCCN1CCCC[C@H]1C(=O)Nc1c(C)cccc1C [LEVOBUPIVACAINE],Not Active,Not Active,Not Active,Not Active,Not Active,Not Active,Not Active,Not Active,Not Active,,,
CCCCc1nc(Cl)c(CO)n1Cc1ccc(-c2ccccc2-c2nnn[nH]2)cc1 [LOSARTAN],Not Active,Not Active,Not Active,Not Active,Not Active,Not Active,Not Active,Not Active,Not Active,,,
Sc1ncnc2nc[nH]c12 [MERCAPTOPURINE ANHYDROUS],Not Active,Not Active,Not Active,Not Active,Not Active,,Not Active,Not Active,Not Active,,,16.2 µM
C[C@](N)(Cc1ccc(O)c(O)c1)C(=O)O [METHYLDOPA],Not Active,Not Active,Not Active,Not Active,Not Active,Not Active,Not Active,Not Active,Not Active,,,
